{"source": "paper PMC8967249", "about": "“Discovery of Novel HPK1 Inhibitors Through Structure-Based Virtual Screening” (Frontiers in Pharmacology, 2022)", "key": {"HPK1 kinase [1]": {"biological_target": "T1, HPK1 kinase (Homo sapiens, UniProt Q92918)", "T1 sequence (Q92918 whole entry)": "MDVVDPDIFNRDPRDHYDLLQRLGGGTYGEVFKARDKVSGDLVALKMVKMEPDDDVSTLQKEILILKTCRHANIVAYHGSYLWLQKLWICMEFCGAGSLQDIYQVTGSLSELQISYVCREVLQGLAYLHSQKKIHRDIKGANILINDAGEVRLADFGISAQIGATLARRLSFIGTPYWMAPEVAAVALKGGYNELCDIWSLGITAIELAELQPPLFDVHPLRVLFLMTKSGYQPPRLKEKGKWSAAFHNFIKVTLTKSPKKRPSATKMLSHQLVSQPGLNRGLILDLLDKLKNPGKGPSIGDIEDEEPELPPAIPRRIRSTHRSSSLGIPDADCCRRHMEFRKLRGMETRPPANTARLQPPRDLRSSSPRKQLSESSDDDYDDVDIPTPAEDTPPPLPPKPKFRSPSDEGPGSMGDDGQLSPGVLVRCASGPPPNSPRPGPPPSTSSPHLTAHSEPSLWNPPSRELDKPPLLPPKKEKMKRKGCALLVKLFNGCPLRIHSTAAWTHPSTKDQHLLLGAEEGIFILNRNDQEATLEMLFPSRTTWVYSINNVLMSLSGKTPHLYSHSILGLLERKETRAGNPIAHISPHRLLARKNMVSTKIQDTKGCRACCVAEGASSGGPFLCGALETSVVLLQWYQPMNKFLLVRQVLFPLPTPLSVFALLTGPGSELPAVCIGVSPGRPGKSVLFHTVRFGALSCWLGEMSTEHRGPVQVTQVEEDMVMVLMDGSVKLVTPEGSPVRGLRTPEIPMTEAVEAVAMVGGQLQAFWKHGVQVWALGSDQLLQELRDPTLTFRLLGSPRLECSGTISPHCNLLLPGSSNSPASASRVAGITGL", "test": "In vitro HPK1 kinase inhibition assay (Caliper mobility shift assay)", "conditions": "for inhibition at 50 µM: read-out: Inhibition (%) 50 μM, 50 μM, duplicate, mean ± SD", "method": "The mixture was centrifuged at 1,000 rpm for 30 s and then mixed and incubated at room temperature for 10 min. […] The plate was incubated at room temperature for 2 h. Finally, 30 μL terminated buffer was added to terminate the kinase reaction. Conversion rate data were read with Caliper EZ ReaderⅡ. The IC50 values of concentration-dependent curves were fitted by GraphPad Prism 6.0."}, "HPK1": {"system": "HPK1", "design": "method as in Wu et al. (2019)", "conditions": "ref Wu et al. (2019); cited from earlier work"}, "WT HPK1 kinase": {"biological_target": "WT HPK1 kinase", "design": "method as in Johnson et al. (2019)", "conditions": "WT HPK1 kinase in vitro; ref Johnson et al. (2019); read-out: inhibition constant (Ki); cited from earlier work"}, "SLP76": {"system": "SLP76", "design": "method as in Yu et al. (2021)", "conditions": "SLP76 PBMC assay; ref Yu et al. (2021); cited from earlier work"}, "HPK1 kinase [2]": {"biological_target": "T1, HPK1 kinase", "design": "purchased Invitrogen PV6357; method as in Yu et al. (2021)", "conditions": "ref Yu et al. (2021); cited from earlier work"}}, "note": "Like-named read-outs stand apart in the source and are kept apart here."}
{"smiles": "O=C1Nc2ccc(Cl)cc2/C1=N/NC(=O)c1cc(Br)ccc1O", "note": "[2395-0114]", "values": [{"measurement": "IC50", "setting": "HPK1 kinase [1]", "result": "9.59 ± 0.46", "unit": "µM"}]}
{"smiles": "Cc1cccc(NC(=O)c2n[nH]c3ccccc23)c1", "note": "[8016-1815]", "values": [{"measurement": "IC50", "setting": "HPK1 kinase [1]", "result": "7.55 ± 0.56", "unit": "µM"}, {"measurement": "inhibition at 50 µM", "setting": "HPK1 kinase [1]", "result": "> 60", "unit": "%"}]}
{"smiles": "CC(C)n1ncc2cnc(Nc3cc(C4CCNC4)nc(N4CCC(F)(F)C4)n3)cc21", "note": "(centres unmarked) [GNE-1858]", "values": [{"measurement": "IC50", "setting": "HPK1", "result": 0.0019, "unit": "µM"}]}
{"smiles": "O=C1CCc2cc(NC(=O)c3n[nH]c4ccccc34)ccc2N1", "note": "[M074-2865]", "values": [{"measurement": "IC50", "setting": "HPK1 kinase [1]", "result": "2.93 ± 0.09", "unit": "µM"}]}
{"smiles": "CCN(CC)CCNC(=O)c1c(C)[nH]c(/C=C2\\C(=O)Nc3ccc(F)cc32)c1C", "note": "[Sunitinib]", "values": [{"measurement": "Ki", "setting": "WT HPK1 kinase", "result": "~0.01", "unit": "µM"}]}
{"smiles": "CCCC[C@@H](CC)CNC(=O)c1ccc(N/N=C2\\C(=O)Nc3ccccc32)cc1", "note": "[V014-4726]", "values": [{"measurement": "IC50", "setting": "HPK1 kinase [1]", "result": "14.3 ± 1.07", "unit": "µM"}, {"measurement": "inhibition at 50 µM", "setting": "HPK1 kinase [1]", "result": "> 60", "unit": "%"}]}
{"smiles": "Cc1cc(C)c2c(c1)/C(=N/Nc1ccc(C(=O)N3CCC[C@@H]3C)cc1)C(=O)N2", "note": "[V030-2005]", "values": [{"measurement": "IC50", "setting": "HPK1 kinase [1]", "result": "9.49 ± 0.54", "unit": "µM"}]}
{"smiles": "COc1cccc(F)c1-c1cc2c(cn1)cnn2-c1cccc(N2CCN(C)CC2)n1", "note": "[XHS]", "values": [{"measurement": "IC50", "setting": "SLP76", "result": 0.6, "unit": "µM"}, {"measurement": "IC50", "setting": "HPK1 kinase [2]", "result": 0.0026, "unit": "µM"}]}
